The results in this text go back to ChEMBL document CHEMBL1152238, “Perylene side chains modulate G-quadruplex conformation in biologically relevant DNA sequences” (Bioorg Med Chem, 2008).

Calls of active or inactive are those of the source. The rule behind the calls is not given here.

For assay [1], the species on record is Homo sapiens. The assay can be described thus: Binding affinity to 4GGG sequence of human telomeric DNA assessed as G-quadruplex formation at 14 uM at 25 degC after 30 mins during thermal cycling by circular dichroism spectroscopy. (Circular dichroism is widely used to follow secondary structure.)
The subject of assay [2] is Nucleic Acid. The assay can be described thus: Binding affinity to negatively supercoiled Escherichia coli pBR322 DNA assessed as DNA intercalation at 10 to 20 uM at pH 8 after 30 mins by DNA unwinding assay. The class given is nucleic-acid assay.
The species entered for assay [3] is Homo sapiens. The assay can be described thus: Binding affinity to 2GGG sequence of human telomeric DNA assessed as G-quadruplex stabilization at 25 degC after 30 mins by electrophoretic mobility shift assay in presence of Li+ ions. In general terms: In EMSA bound probe runs differently from free probe, usually more slowly.
For assay [4], the species on record is Homo sapiens. The experiment in a line: Binding affinity to 4GGG sequence of human telomeric DNA assessed as G-quadruplex stabilization at 25 degC after 30 mins by electrophoretic mobility shift assay in presence of Li+ ions.
Assay [5] in a line: Binding affinity to 2GGG sequence of human telomeric DNA assessed as intramolecular folding leading to G-quadruplex formation at 25 degC after 30 mins by electrophoretic mobility shift assay.
Assay [6] can be described thus: Binding affinity to pu27 sequence of c-myc DNA assessed as G-quadruplex formation at 90 degC […] after 10 mins by electrophoretic mobility shift assay.
The species entered for assay [7] is Homo sapiens. The assay can be described thus: Binding affinity to double stranded 4GGG sequence of human telomeric DNA assessed as G-quadruplex formation at 0.1 to 10 uM at 37 degC after 24 hrs by electrophoretic mobility shift assay.
Assay [8] is described as follows: Binding affinity to pu27 sequence of c-myc DNA assessed as G-quadruplex stabilization at 25 degC after 30 mins at 25 degC by electrophoretic mobility shift assay in presence of Li+ ions.
The species entered for assay [9] is Homo sapiens. The assay can be described thus: Binding affinity to 1GGG sequence of human telomeric DNA assessed as G-quadruplex stabilization at 25 degC after 30 mins by electrophoretic mobility shift assay in presence of Li+ ions.
Assay [10] is filed under the species Homo sapiens. The assay can be described thus: Binding affinity to 4GGG sequence of human telomeric DNA assessed as G-quadruplex formation at 14 uM at 25 degC after 30 mins by circular dichroism spectroscopy in presence of K+ ions.
The subject of assay [11] is Nucleic Acid. The experiment in a line: Binding affinity to negatively supercoiled Escherichia coli pBR322 DNA assessed as DNA intercalation at 20 to 50 uM at pH 6 after 30 mins by DNA unwinding assay. The class given is nucleic-acid assay.
The species entered for assay [12] is Homo sapiens. The assay can be described thus: Binding affinity to 42GGG sequence of human telomeric DNA assessed as G-quadruplex formation at 25 degC upto 20 uM after 30 mins by electrophoretic mobility shift assay.
The species entered for assay [13] is Homo sapiens. The assay can be described thus: Binding affinity to 42GGG sequence of human telomeric DNA assessed as G-quadruplex formation at 90 degC after 10 mins by electrophoretic mobility shift assay.
Assay [14] in a line: Binding affinity to 1GGG sequence of human telomeric DNA assessed as intramolecular folding leading to G-quadruplex formation at 25 degC after 30 mins by electrophoretic mobility shift assay.
Assay [15] is filed under the species Homo sapiens. The assay can be described thus: Binding affinity to unfolded 4GGG sequence of human telomeric DNA assessed as G-quadruplex formation at 25 degC by circular dichroism spectroscopy in presence of Li+ ions.
For assay [16], the species on record is Homo sapiens. The assay can be described thus: Binding affinity to 4GGG sequence of human telomeric DNA assessed as intramolecular folding leading to G-quadruplex formation at 25 degC after 30 mins by electrophoretic mobility shift assay.
The nature of assay [17]: Binding affinity to pu27 sequence of c-myc DNA assessed as intramolecular folding leading to G-quadruplex formation at 25 degC after 30 mins by electrophoretic mobility shift assay.
Assay [18] relates to Escherichia coli. The experiment in a line: Binding affinity to negatively supercoiled Escherichia coli pBR322 DNA assessed as self-aggregation at 10 to 20 uM at 37 degC after 30 mins by DNA unwinding assay.
The species named for assay [19] is Homo sapiens. The assay can be described thus: Binding affinity to 2GGG sequence of human telomeric DNA assessed as G-quadruplex formation at 25 degC upto 15 uM after 30 mins by electrophoretic mobility shift assay.
The species named for assay [20] is Homo sapiens. The experiment in a line: Binding affinity to 2GGG sequence of human telomeric DNA assessed as G-quadruplex formation at 25 degC upto 15 uM after 24 hr by electrophoretic mobility shift assay.
The species entered for assay [21] is Homo sapiens. The experiment in a line: Binding affinity to 2GGG sequence of human telomeric DNA assessed as stabilization of dimeric form of G-quadruplex DNA at 95 degC for 5 mins by electrophoretic mobility shift assay.
The species named for assay [22] is Homo sapiens. The assay can be described thus: Binding affinity to 2GGG sequence of human telomeric DNA assessed as G-quadruplex formation at 90 degC upto 15 uM after 10 mins by electrophoretic mobility shift assay.
A short description of assay [23]: Binding affinity to double stranded pu27 sequence of c-myc DNA assessed as G-quadruplex formation at 14 uM at 25 degC after 30 mins during thermal cycling by circular dichroism spectroscopy.
Assay [24] is filed under the species Homo sapiens. The experiment in a line: Binding affinity to 4GGGtail sequence of human telomeric DNA assessed as G-quadruplex formation at 0.1 to 10 uM at 37 degC after 24 hrs by electrophoretic mobility shift assay.
The species entered for assay [25] is Homo sapiens. The assay can be described thus: Binding affinity to 1GGG sequence of human telomeric DNA assessed as G-quadruplex formation at 14 uM at 25 degC after 30 mins by circular dichroism spectroscopy.
The species named for assay [26] is Homo sapiens. The experiment in a line: Binding affinity to 4GGG sequence of human telomeric DNA assessed as melting temperature at 14 uM at 25 degC after 30 mins by circular dichroism spectroscopy in presence of K+ ions.
Assay [27] is filed under the species Homo sapiens. The assay can be described thus: Binding affinity to 2GGG sequence of human telomeric DNA assessed as G-quadruplex formation at 14 uM at 25 degC after 30 mins by circular dichroism spectroscopy.
Assay [28] can be described thus: Binding affinity to double stranded pu27 sequence of c-myc DNA assessed as melting temperature at 14 uM at 25 degC after 30 mins by circular dichroism spectroscopy in presence of K+ ions.
A short description of assay [29]: Binding affinity to double stranded pu27 sequence of c-myc DNA assessed as intramolecular folding leading to G-quadruplex formation at 0.1 to 10 uM at 37 degC after 24 hrs by electrophoretic mobility shift assay.
Assay [30] in a line: Binding affinity to double stranded pu27 sequence of c-myc DNA assessed as intramolecular folding leading to G-quadruplex formation at 0.1 to 10 uM at 95 degC after 24 hrs by electrophoretic mobility shift assay.

As usually defined, the EC50 is the concentration needed to bring the measured effect to its halfway point. As to `O=C1c2ccc3c4ccc5c6c(ccc(c7ccc(c2c37)C(=O)N1CCNCCO)c64)C(=O)N(CCNCCO)C5=O`, the result in assay [1], in [6] and in assay [7] was inactive. For the same compound, the result in assay [2], in assay [3], in [4], in assay [8], in [9] and in [10] was Active. The outcome in [11], in assay [12] and in assay [13] was Active. The figures for the EC50 in assay [5] and in assay [14] were 3.8 µM and 11 µM, respectively.
`c1cc2c3ccc4c5c(ccc(c6ccc7c(c1CN(CCN1CCCCC1)C7)c26)c53)CN(CCN1CCCCC1)C4`: the result in assay [1], in assay [6], in [7], in assay [12], in [13] and in assay [18] was inactive. Further, the result in assay [15], in [3], in [4], in [8], in assay [9] and in assay [10] was Active. Moreover, the result in [11], in assay [16] and in assay [17] was Active. In addition, the EC50 in [5] worked out at 20 µM; in assay [14], 25 µM.
On to `O=C1c2ccc3c4ccc5c6c(ccc(c7ccc(c2c37)C(=O)N1CCN1CCCCC1)c64)C(=O)N(CCN1CCCCC1)C5=O`, for which the outcome in assay [1], in assay [6], in [7], in [12], in assay [13] and in assay [18] was inactive. Also, the result in assay [19], in assay [20], in [21], in assay [15], in assay [3] and in assay [4] was Active. Besides, the result in assay [8], in [9], in assay [10], in [22], in [11] and in assay [16] was Active. The outcome in assay [23], in assay [17] and in assay [24] was Active. Moreover, the EC50 in assay [5] is 90 µM; in assay [14] it was over 100 µM.
`C[N+](C)(C)CCN1C(=O)c2ccc3c4ccc5c6c(ccc(c7ccc(c2c37)C1=O)c64)C(=O)N(CC[N+](C)(C)C)C5=O`: the outcome in assay [1], in assay [2], in [3], in assay [4], in [8] and in assay [9] was Active. Moreover, the result in assay [10] and in [11] was Active. Besides, the outcome in assay [25], in assay [27], in assay [6] and in assay [7] was inactive. For the same compound, the Tm in assay [26] stood at 64 °C; in [28], 83 °C. In addition, the concentration for a half-maximal effect (EC50) in assay [5] came to 12 µM; in assay [14], 10.8 µM.
As for `CN(C)CCN1C(=O)c2ccc3c4ccc5c6c(ccc(c7ccc(c2c37)C1=O)c64)C(=O)N(CCN(C)C)C5=O`, the result in assay [1], in [29], in [6], in assay [7], in assay [30] and in [24] was inactive. The outcome in assay [2], in assay [19], in [20], in [21], in assay [3] and in [4] was Active. Further, the outcome in assay [8], in [9], in assay [10], in assay [22], in [11] and in assay [12] was Active. The outcome in assay [13] and in assay [23] was Active. For the same compound, the concentration giving a half-maximal response (EC50) was 4 µM in [5] and 8.7 µM in assay [14].
